The values below come from US20030220346A1 (priority 2003, published 2003).

The target of data set [1] is T1, D2A (Homo sapiens, UniProt P14416).
T1 construct: expressed in transfected cells
The experiment in a line: dopaminergic receptor binding, D2A. Conditions: result in words. The method, then:
(§1) As known in the art, human monoamine GPCR binding profiles were obtained using heterologously expressed cloned human GPCRs in the binding experiments. Both pKi and IC50 (nM concentration) values were obtained as well as an average value of each from at least three determinations.
(§2) Dopaminergic receptors D2A, D2B, D3, and D4 were also tested.

For data set [2], the target named is T2, Alpha 2C receptor (Homo sapiens, UniProt P18825).
T2 construct: expressed in transfected cells
T2 sequence (P18825 1-462): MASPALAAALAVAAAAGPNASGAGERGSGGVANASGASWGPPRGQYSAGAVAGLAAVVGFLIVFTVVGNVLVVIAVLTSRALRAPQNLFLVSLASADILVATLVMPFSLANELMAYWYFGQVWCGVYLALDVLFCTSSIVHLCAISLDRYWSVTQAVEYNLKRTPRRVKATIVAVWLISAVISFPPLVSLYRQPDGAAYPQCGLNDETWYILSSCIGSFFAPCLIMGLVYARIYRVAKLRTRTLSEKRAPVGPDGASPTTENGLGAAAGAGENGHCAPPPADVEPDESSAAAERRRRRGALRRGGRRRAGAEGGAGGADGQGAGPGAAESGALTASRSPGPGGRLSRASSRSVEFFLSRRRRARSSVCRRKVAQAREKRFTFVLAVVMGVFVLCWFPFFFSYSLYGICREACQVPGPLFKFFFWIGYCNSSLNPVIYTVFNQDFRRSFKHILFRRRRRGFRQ
As to the kind of experiment: alpha-adrenergic receptor binding, Alpha 2C. As to conditions: result in words. As for the experimental part: as §1, §2

Data set [3] addresses T3, Alpha 2B (Homo sapiens, UniProt P18089).
T3 construct: expressed in transfected cells
T3 sequence (P18089 1-450): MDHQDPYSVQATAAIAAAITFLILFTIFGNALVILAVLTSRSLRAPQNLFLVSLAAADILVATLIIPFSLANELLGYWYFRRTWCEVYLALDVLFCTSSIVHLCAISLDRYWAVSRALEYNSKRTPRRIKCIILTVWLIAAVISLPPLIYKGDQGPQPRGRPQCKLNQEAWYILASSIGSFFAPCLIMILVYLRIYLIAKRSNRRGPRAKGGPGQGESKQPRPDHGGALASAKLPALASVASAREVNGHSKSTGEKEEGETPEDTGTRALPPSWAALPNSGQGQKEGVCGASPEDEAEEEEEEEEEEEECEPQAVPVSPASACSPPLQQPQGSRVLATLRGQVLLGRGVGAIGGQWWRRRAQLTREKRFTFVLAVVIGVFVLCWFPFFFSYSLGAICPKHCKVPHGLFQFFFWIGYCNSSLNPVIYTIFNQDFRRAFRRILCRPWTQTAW
The experiment in a line: alpha-adrenergic receptor binding, Alpha 2B. Conditions: result in words. The method, then:
as §1, §2

Data set [4] addresses T4, D2B (Homo sapiens, UniProt P14416).
T4 construct: expressed in transfected cells
The experiment in a line: dopaminergic receptor binding, D2B. As to conditions: result in words. The method, then:
as §1, §2

The target of data set [5] is T5, Alpha 2A (Homo sapiens, UniProt P08913).
T5 construct: expressed in transfected cells
T5 sequence (P08913 1-465): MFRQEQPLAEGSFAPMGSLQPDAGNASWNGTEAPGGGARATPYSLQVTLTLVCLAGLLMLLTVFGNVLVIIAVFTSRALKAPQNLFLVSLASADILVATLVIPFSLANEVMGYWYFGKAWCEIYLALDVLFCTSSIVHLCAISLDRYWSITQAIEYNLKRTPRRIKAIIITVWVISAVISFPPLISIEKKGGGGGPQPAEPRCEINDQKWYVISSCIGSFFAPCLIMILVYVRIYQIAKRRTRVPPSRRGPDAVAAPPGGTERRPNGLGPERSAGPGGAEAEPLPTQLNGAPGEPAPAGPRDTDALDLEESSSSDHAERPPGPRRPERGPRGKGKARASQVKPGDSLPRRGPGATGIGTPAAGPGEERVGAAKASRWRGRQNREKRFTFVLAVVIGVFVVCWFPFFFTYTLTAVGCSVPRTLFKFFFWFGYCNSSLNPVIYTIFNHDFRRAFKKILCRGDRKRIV
The experiment in a line: alpha-adrenergic receptor binding, Alpha 2A. Conditions: result in words. The method, then: as §1, §2

Data set [6] is described as follows: plasma levels of 3-OH gepirone after administration of gepirone. Conditions: human subjects administered a dose of gepirone; FIG. 2; result in words. Type of data set: in vivo. As for the experimental part: “Time (H)” represents time after administration.
Each sample corresponds to a 0.5 ml plasma sample, extracted with 6 ml of (2:1) (v/v) hexane:chloroform for 1 hour. After separation by centrifuge, the organic layer is transferred to a 10 ml conical tube and 90 ul of 1% formic acid is added. The tube is vortexed for 10 minutes and centrifuged for 5 minutes. About 80 ul of the formic acid layer is transferred into injection vials for HPLC/MS analysis.

Data set [7] addresses T6, D3 (Homo sapiens, UniProt P35462).
T6 construct: expressed in transfected cells
As to the kind of experiment: dopaminergic receptor binding, D3. As to conditions: result in words. As for the experimental part: as §1, §2

For data set [8], the target named is T7, 5-HT1A receptor (Homo sapiens, UniProt P08908).
T7 construct: expressed in transfected cells
T7 sequence (P08908 1-422): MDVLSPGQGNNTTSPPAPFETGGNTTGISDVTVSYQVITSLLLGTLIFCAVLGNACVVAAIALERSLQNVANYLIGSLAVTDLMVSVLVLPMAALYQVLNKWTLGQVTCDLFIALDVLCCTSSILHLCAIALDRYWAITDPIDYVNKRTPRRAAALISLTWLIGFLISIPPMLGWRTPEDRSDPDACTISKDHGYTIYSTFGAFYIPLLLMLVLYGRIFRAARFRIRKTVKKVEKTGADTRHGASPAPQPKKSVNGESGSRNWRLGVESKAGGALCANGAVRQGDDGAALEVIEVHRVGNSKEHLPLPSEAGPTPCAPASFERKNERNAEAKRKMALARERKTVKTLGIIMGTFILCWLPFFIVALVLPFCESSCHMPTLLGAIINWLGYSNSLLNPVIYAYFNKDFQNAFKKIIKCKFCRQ
As to the kind of experiment: human monoamine GPCR binding profile, 5-HT1A. As to conditions: at least about 30 fold to over 1500 fold lower IC50.
Excerpt: as §1

For data set [9] the following is noted: cited from earlier work; for half-life: result in words.

T1 sequence (P14416 whole entry): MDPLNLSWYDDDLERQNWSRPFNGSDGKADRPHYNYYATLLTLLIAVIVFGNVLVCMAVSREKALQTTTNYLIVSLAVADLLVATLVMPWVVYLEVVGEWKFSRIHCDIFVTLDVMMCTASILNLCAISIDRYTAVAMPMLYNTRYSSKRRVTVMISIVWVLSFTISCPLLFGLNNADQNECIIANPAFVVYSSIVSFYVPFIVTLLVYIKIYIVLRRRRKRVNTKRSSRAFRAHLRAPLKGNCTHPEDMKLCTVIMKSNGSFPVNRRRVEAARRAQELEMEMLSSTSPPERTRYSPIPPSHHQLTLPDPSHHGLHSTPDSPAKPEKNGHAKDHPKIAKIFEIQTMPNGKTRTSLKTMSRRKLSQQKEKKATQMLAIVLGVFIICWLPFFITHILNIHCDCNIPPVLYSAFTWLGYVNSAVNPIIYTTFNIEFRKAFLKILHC
T4 sequence (P14416 1-414 isoform P14416-2): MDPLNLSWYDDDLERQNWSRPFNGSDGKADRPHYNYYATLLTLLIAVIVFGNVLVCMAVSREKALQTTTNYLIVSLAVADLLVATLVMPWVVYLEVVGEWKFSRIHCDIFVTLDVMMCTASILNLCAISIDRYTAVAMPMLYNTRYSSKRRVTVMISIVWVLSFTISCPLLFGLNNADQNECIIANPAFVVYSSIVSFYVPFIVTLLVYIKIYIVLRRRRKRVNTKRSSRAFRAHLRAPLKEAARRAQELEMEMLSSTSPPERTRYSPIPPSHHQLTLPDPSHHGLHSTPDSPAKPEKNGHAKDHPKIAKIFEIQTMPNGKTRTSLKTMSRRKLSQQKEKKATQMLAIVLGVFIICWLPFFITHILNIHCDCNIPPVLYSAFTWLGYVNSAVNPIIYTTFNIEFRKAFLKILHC
T6 sequence (P35462 whole entry): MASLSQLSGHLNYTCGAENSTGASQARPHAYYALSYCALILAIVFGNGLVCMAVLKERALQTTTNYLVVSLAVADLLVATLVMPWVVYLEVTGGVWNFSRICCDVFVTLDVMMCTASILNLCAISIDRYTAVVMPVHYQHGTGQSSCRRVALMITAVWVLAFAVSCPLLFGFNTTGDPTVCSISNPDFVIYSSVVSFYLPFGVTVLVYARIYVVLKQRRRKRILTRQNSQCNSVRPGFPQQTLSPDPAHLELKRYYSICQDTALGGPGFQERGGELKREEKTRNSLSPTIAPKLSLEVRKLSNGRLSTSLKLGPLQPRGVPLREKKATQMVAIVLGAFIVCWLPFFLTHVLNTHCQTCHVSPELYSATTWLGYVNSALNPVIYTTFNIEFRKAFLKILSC

As for `CC1(C)CC(=O)N(CCCCN2CCN(c3ncccn3)CC2)C(=O)C1O` (centres unmarked) [3-OH gepirone, 4,4-Dimethyl-3-hydroxy-1-[4-[4-(2-pyrimidinyl)-1-piperazinyl]butyl]-2,6-piperidinedione], the “dopaminergic binding at D2A” value in data set [1] is recorded as “insignificant”. The “binding at the Alpha 2C receptor” value in data set [2] is reported as “weak binding”. For the same molecule, the “affinity at Alpha 2B” value in data set [3] was “did not display significant affinity”. The “dopaminergic binding at D2B” value in data set [4] was “insignificant”. The “affinity at Alpha 2A” value in data set [5] is given as “did not display significant affinity”. For the same molecule, the “plasma levels of 3-OH gepirone” value in data set [6] was “available quickly and persists in the plasma for extended periods of time”. In addition, the “dopaminergic binding at D3” value in [7] is listed as “insignificant”. In addition, the “selectivity for the 5-HT1A receptor compared to the 5-HT2, 5-HT6, and 5-HT7 receptors (fold lower IC50)” value in data set [8] is “at least 30 fold”.
As for `CC1(C)CC(=O)N(CCCCN2CCN(c3ncccn3)CC2)C(=O)C1` [gepirone, 4-dimethyl-1-[4-[4-(2-pyrimidinyl)-1-piperazinyl]butyl]-2,6-piperidinedione], the bioavailability in [9] (delivered orally) is 14-18%. In addition, in data set [9], the half-life result is on record as “very short”.
`O=C1CC2(CCCC2)CC(=O)N1CCCCN1CCN(c2ncccn2)CC1` [buspirone]: the half-life result in data set [9] is reported as “very short”.
